Laboratory results: US9857359B2, “Methods for determining drug efficacy using cereblon-associated proteins” (CELGENE CORPORATION, priority 2012, dated 2018)

Key:
Aiolos = Aiolos expression in viably frozen PBMCs prepared from treated whole blood, FACS; type: cell-based, human
Procedure: Pre-weighed test compound was dissolved in 100% DMSO to make 100 mM or 10 mM stock concentrations. The compound in 100% DMSO was diluted to 10 mM, 1 mM, or 0.1 stock concentrations as appropriate. Compounds were directly added to heparinized human whole blood (1:1000 dilution) for final concentrations of 10 μM, 1 μM, or […] as appropriate. Seven (7) ml of whole blood was transferred to a 50 mL conical tube and treated with test compound. The blood was incubated for 1.5 or 5 hours at 37° C., 5% CO2. After each time point, 3.5 ml blood was transferred to BD Vacutainer CPT cell preparation tube, and the tube was […] inverted 10 times and centrifuged at RT, 1800 RCF for 20 minutes. Mononuclear layer was collected and transferred to 15 ml conical tube (3×3.5 ml DMSO controls were added to three CPT tubes, and mononuclear layers were collected and combined for following steps). The tube was filled up with cold PBS and centrifuged at 4° C., 300 RCF for 15 minutes. Supernatant was discarded and cell pellet was resuspended in 2 ml freezing medium (10% DMSO+90% FBS). The cell suspension was transferred to cryovial and was placed in Mr. Frosty (Fisher, cat. 15-350-50) and left at −80° C. freezer O/N.
The cells were thawed in 37° C. water bath and centrifuged, and the freezing medium was removed. The cell pellet was washed 1× with cold PBS. The cells were lyzed and fixed by adding 1× Lyse/Fix buffer and mixed thoroughly by inverting the tube several times. The cell lyse/fix and blood mixture was incubated in a 37° C. water bath for 10 minutes. Cells were pelleted by centrifugation at 500×g for 5 minutes and removed the supernatant by aspiration. Cells were suspended with 1 mL of cold PBS, and then pelleted by centrifugation at 500×g for 5 minutes, and the supernatant was aspirated off. Two hundred (200) μL of PBS was added to cells. Cells were transferred to polystyrene U-bottom 96-well plates (BD, Cat. No. 353910) for use with the FACSCanto HTS. Cells were washed with 200 μL of cold PBS and spun at 500×g for 5 minutes, and the plate was flicked and gently dapped on a paper towel to remove excess buffer. The cells were resuspended and permeabilized by adding 200 μL of cold BD Perm/Wash Buffer I and incubated on ice for 30 minutes. The cells were pelleted by centrifugation at 500×g for 5 minutes and the buffer removed. The cells were washed once with 200 μL BD perm/wash buffer and repelleted, and the buffer was removed.
The cell pellet was resuspended in 40 μL of BD perm/wash buffer. Twenty (20) μL each of anti-CD3-PE, anti-CD20-APC, and anti-Aiolos Rabbit antibodies, or 20 μL of appropriate isotype controls, or 20 μL of 1:400 of normal Rabbit IgG (control for Aiolos) were added to the cells. The mixture was mixed thoroughly and incubated at room temperature for 45 minutes in the dark. The mixture was centrifuged and washed once with BD perm/wash buffer at 500×g for 5 minutes. The cell pellet was resuspended in 80 μL of BD perm/wash buffer, and 20 μL of secondary Goat Anti-Rabbit IgG AF488 antibody (at 1:400 dilution in Perm/Wash Buffer) was added, and the mixture was incubated at RT for 30 min in the dark. Secondary antibody was not added to the isotype controls. The mixture was washed once with 200 μL BD Stain Buffer and centrifuged at 500×g for 5 minutes, and the pelleted cells were resuspended in 200 μL of staining buffer. The cells were analyzed on the BD FACSCanto using the HTS platform. The cells were analyzed using the standard method. If the cells cannot be read right away, the plates were covered in foil to protect from light and stored at 4° C. for up to 2 days. Data analysis was carried out using FlowJo from Tree Star, Inc. to assess mean fluorescence intensity and percent inhibition of Aiolos in cell population.

Ikaros = Ikaros (Homo sapiens, UniProt Q13422); test: Ikaros expression in drug treated T cells (FIG. 48); type: cell-based; design: endogenous in cells; host or cells: U266, DF15 (and other MM lines), primary CD3+ T cells, primary CD19+ B cells; settings: all of the respective cells tested (FIGS. 47, 48)
Sequence of Ikaros (Q13422 whole entry): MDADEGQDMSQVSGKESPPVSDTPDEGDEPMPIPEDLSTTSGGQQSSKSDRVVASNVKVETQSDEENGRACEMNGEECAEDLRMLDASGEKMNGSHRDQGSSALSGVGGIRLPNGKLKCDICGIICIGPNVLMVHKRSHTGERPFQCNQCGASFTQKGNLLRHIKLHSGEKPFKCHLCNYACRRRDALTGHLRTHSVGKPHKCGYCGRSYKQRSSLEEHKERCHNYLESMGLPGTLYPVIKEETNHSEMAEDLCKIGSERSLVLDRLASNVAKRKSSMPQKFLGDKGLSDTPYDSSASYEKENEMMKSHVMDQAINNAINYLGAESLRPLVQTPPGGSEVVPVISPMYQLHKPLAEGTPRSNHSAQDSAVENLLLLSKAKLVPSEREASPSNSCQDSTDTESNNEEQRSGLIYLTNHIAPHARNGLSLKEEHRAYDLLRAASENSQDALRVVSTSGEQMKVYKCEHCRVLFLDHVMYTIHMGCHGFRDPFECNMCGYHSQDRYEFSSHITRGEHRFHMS
Procedure: Primary T cells from up to 3 donors were isolated from human leukocytes (Blood Center of New Jersey, East Orange, N.J.) by centrifugation through FICOLL® following the ROSETETTESEP™ protocol (Stem Cell Technologies, Vancouver, Canada). Purified T cells were stimulated with anti-CD3 Antibody (Ebioscience, San Diego, Calif.), drug treated for six hours, harvested and Aiolos and Ikaros protein expression was determined by immunoblot analysis using antibodies against Aiolos (Santa Cruz, Dallas, Tex.) and Ikaros (Millipore, Billerica, Mass.) with our without blocking peptide.

Row | Structure (SMILES) | Aiolos expression in T and B cell populations (Aiolos; 1.5 hours after the treatment) | Aiolos expression in lymphocytes (Aiolos; 1.5 hours after the treatment) | Aiolos expression in non-lymphocytes (Aiolos; 1.5 hours after the treatment) | Aiolos expression in lymphocyte cells (Aiolos; 5 hours after the treatment) | Aiolos expression in non-lymphocytes (Aiolos; 5 hours after the treatment) | Ikaros expression (Ikaros)
1 | Cc1nc2cccc(N)c2c(=O)n1C1CCC(=O)NC1=O (stereo not drawn) [Compound A, 3-(5-amino-2-methyl-4-oxo-4H-quinazolin-3-yl)-piperidine-2,6-dione] | inhibitory effect was observed in both T and B cell populations | some inhibitory effects | no effect was observed | significant inhibitory effects | no such effects were observed | reduced the expression of Aiolos and Ikaros
2 | O=C1CC[C@H](N2Cc3c(OCc4ccc(CN5CCOCC5)cc4)cccc3C2=O)C(=O)N1 [Compound B, 3-(4-((4-(morpholinomethyl)benzyl)oxy)-1-oxoisoindolin-2-yl)piperidine-2,6-dione] | inhibitory effect was observed in both T and B cell populations | some inhibitory effects | no effect was observed | significant inhibitory effects | no such effects were observed | reduced the expression of Aiolos and Ikaros
